Test results: PubChem BioAssay (NCI)
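Five compound concentrations were applied to cells in 96-well plates for 48 hours; endpoints were derived by simple linear interpolation of the resulting dose-response curve. GI50 is the concentration that inhibits growth by half. TGI is the concentration that stops growth completely.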

Tests used:
Experiment in all cases: DTP human tumour cell line panel, 48 h
786-0 renal = test system: 786-0 renal
A498 renal = test system: A498 renal
A549 NSCLC = test system: A549 NSCLC
ACHN renal = test system: ACHN renal
BT-549 breast = test system: BT-549 breast
CAKI-1 renal = test system: CAKI-1 renal
CCRF-CEM leukemia = test system: CCRF-CEM leukemia
COLO 205 colon = test system: COLO 205 colon
DU-145 prostate = test system: DU-145 prostate
EKVX NSCLC = test system: EKVX NSCLC
HCC-2998 colon = test system: HCC-2998 colon
HCT-116 colon = test system: HCT-116 colon
HCT-15 colon = test system: HCT-15 colon
HL-60(TB) leukemia = test system: HL-60(TB) leukemia
HOP-62 NSCLC = test system: HOP-62 NSCLC
HOP-92 NSCLC = test system: HOP-92 NSCLC
HS 578T breast = test system: HS 578T breast
HT29 colon = test system: HT29 colon
IGROV1 ovarian = test system: IGROV1 ovarian
K-562 leukemia = test system: K-562 leukemia
KM12 colon = test system: KM12 colon
LOX IMVI melanoma = test system: LOX IMVI melanoma
M14 melanoma = test system: M14 melanoma
MALME-3M melanoma = test system: MALME-3M melanoma
MCF7 breast = test system: MCF7 breast
MDA-MB-231 breast = test system: MDA-MB-231 breast
MDA-MB-435 = test system: MDA-MB-435
MOLT-4 leukemia = test system: MOLT-4 leukemia
NCI-H226 lung = test system: NCI-H226 lung
NCI-H460 lung = test system: NCI-H460 lung
NCI-H522 lung = test system: NCI-H522 lung
NCI/ADR-RES ovarian = test system: NCI/ADR-RES ovarian
OVCAR-3 ovarian = test system: OVCAR-3 ovarian
OVCAR-4 ovarian = test system: OVCAR-4 ovarian
OVCAR-5 ovarian = test system: OVCAR-5 ovarian
OVCAR-8 ovarian = test system: OVCAR-8 ovarian
PC-3 prostate = test system: PC-3 prostate
RPMI-8226 leukemia = test system: RPMI-8226 leukemia
RXF 393 renal = test system: RXF 393 renal
SF-268 CNS = test system: SF-268 CNS
SF-295 CNS = test system: SF-295 CNS
SF-539 CNS = test system: SF-539 CNS
SK-MEL-2 melanoma = test system: SK-MEL-2 melanoma
SK-MEL-28 melanoma = test system: SK-MEL-28 melanoma
SK-MEL-5 melanoma = test system: SK-MEL-5 melanoma
SK-OV-3 ovarian = test system: SK-OV-3 ovarian
SN12C renal = test system: SN12C renal
SNB-19 CNS = test system: SNB-19 CNS
SNB-75 CNS = test system: SNB-75 CNS
SR leukemia = test system: SR leukemia
SW-620 colon = test system: SW-620 colon
T-47D breast = test system: T-47D breast
TK-10 renal = test system: TK-10 renal
U251 CNS = test system: U251 CNS
UACC-257 melanoma = test system: UACC-257 melanoma
UACC-62 melanoma = test system: UACC-62 melanoma
UO-31 renal = test system: UO-31 renal

SMILES: CNC(=O)c1cc(-c2ccc(NC(=O)Nc3ccc(N4CCN(C)CC4)c(C(F)(F)F)c3)cc2)nc2cccnc12
- GI50 (786-0 renal): 1.81 µM
- TGI (786-0 renal): 3.52 µM
- GI50 (A498 renal): > 100 µM
- TGI (A498 renal): > 100 µM
- GI50 (A549 NSCLC): 10.9 µM
- TGI (A549 NSCLC): 24.3 µM
- GI50 (ACHN renal): 15.5 µM
- TGI (ACHN renal): 28.9 µM
- GI50 (BT-549 breast): 16.5 µM
- TGI (BT-549 breast): 35.3 µM
- GI50 (CAKI-1 renal): 16.1 µM
- TGI (CAKI-1 renal): 29.6 µM
- GI50 (CCRF-CEM leukemia): 3.16 µM
- TGI (CCRF-CEM leukemia): 74.2 µM
- GI50 (COLO 205 colon): 16.8 µM
- TGI (COLO 205 colon): 32.8 µM
- GI50 (DU-145 prostate): 17.6 µM
- TGI (DU-145 prostate): 35.6 µM
- GI50 (EKVX NSCLC): 17.9 µM
- TGI (EKVX NSCLC): 33.9 µM
- GI50 (HCC-2998 colon): 18 µM
- TGI (HCC-2998 colon): 34.6 µM
- GI50 (HCT-116 colon): 4.09 µM
- TGI (HCT-116 colon): 75.6 µM
- GI50 (HCT-15 colon): 2.07 µM
- TGI (HCT-15 colon): 4.33 µM
- GI50 (HL-60(TB) leukemia): 16.1 µM
- TGI (HL-60(TB) leukemia): 38.7 µM
- GI50 (HOP-62 NSCLC): 16.4 µM
- TGI (HOP-62 NSCLC): 32.2 µM
- GI50 (HOP-92 NSCLC): 6.54 µM
- TGI (HOP-92 NSCLC): > 100 µM
- GI50 (HS 578T breast): 15 µM
- TGI (HS 578T breast): 38.9 µM
- GI50 (HT29 colon): 1.92 µM
- TGI (HT29 colon): 4.19 µM
- GI50 (IGROV1 ovarian): 17.7 µM
- TGI (IGROV1 ovarian): 36.6 µM
- GI50 (K-562 leukemia): 2.12 µM
- TGI (K-562 leukemia): 5.35 µM
- GI50 (KM12 colon): 17.4 µM
- TGI (KM12 colon): 43.3 µM
- GI50 (LOX IMVI melanoma): 0.656 µM
- TGI (LOX IMVI melanoma): 24.5 µM
- GI50 (M14 melanoma): 1.79 µM
- TGI (M14 melanoma): 3.71 µM
- GI50 (MALME-3M melanoma): 1.68 µM
- TGI (MALME-3M melanoma): 3.21 µM
- GI50 (MCF7 breast): 1.67 µM
- TGI (MCF7 breast): 3.45 µM
- GI50 (MDA-MB-231 breast): 17.5 µM
- TGI (MDA-MB-231 breast): 38.1 µM
- GI50 (MDA-MB-435): 1.75 µM
- TGI (MDA-MB-435): 3.27 µM
- GI50 (MOLT-4 leukemia): 2.79 µM
- TGI (MOLT-4 leukemia): 14.9 µM
- GI50 (NCI-H226 lung): 18 µM
- TGI (NCI-H226 lung): 39.7 µM
- GI50 (NCI-H460 lung): 3.19 µM
- TGI (NCI-H460 lung): 10.2 µM
- GI50 (NCI-H522 lung): 16.5 µM
- TGI (NCI-H522 lung): 31.1 µM
- GI50 (NCI/ADR-RES ovarian): 14.2 µM
- TGI (NCI/ADR-RES ovarian): 45.4 µM
- GI50 (OVCAR-3 ovarian): 9.59 µM
- TGI (OVCAR-3 ovarian): 25.8 µM
- GI50 (OVCAR-4 ovarian): 15.7 µM
- TGI (OVCAR-4 ovarian): 31.6 µM
- GI50 (OVCAR-5 ovarian): 15.6 µM
- TGI (OVCAR-5 ovarian): 29 µM
- GI50 (OVCAR-8 ovarian): 17.4 µM
- TGI (OVCAR-8 ovarian): 35.4 µM
- GI50 (PC-3 prostate): 15.1 µM
- TGI (PC-3 prostate): 30.1 µM
- GI50 (RPMI-8226 leukemia): 3.85 µM
- TGI (RPMI-8226 leukemia): 25 µM
- GI50 (RXF 393 renal): 3.38 µM
- TGI (RXF 393 renal): 15 µM
- GI50 (SF-268 CNS): 17.5 µM
- TGI (SF-268 CNS): 39.2 µM
- GI50 (SF-295 CNS): 18 µM
- TGI (SF-295 CNS): 36.9 µM
- GI50 (SF-539 CNS): 13.6 µM
- TGI (SF-539 CNS): 26.5 µM
- GI50 (SK-MEL-2 melanoma): > 100 µM
- TGI (SK-MEL-2 melanoma): > 100 µM
- GI50 (SK-MEL-28 melanoma): 1.67 µM
- TGI (SK-MEL-28 melanoma): 3.11 µM
- GI50 (SK-MEL-5 melanoma): 17.5 µM
- TGI (SK-MEL-5 melanoma): 31.7 µM
- GI50 (SK-OV-3 ovarian): 18.5 µM
- TGI (SK-OV-3 ovarian): 34.7 µM
- GI50 (SN12C renal): 16.7 µM
- TGI (SN12C renal): 34.7 µM
- GI50 (SNB-19 CNS): 16.9 µM
- TGI (SNB-19 CNS): 33.2 µM
- GI50 (SNB-75 CNS): 14.9 µM
- TGI (SNB-75 CNS): 28.4 µM
- GI50 (SR leukemia): 9.97 µM
- TGI (SR leukemia): 44.6 µM
- GI50 (SW-620 colon): 2.11 µM
- TGI (SW-620 colon): 4.62 µM
- GI50 (T-47D breast): 17 µM
- TGI (T-47D breast): 43.4 µM
- GI50 (TK-10 renal): 18.5 µM
- TGI (TK-10 renal): 33.3 µM
- GI50 (U251 CNS): 3.43 µM
- TGI (U251 CNS): 14.7 µM
- GI50 (UACC-257 melanoma): 15.3 µM
- TGI (UACC-257 melanoma): 28.8 µM
- GI50 (UACC-62 melanoma): 18.4 µM
- TGI (UACC-62 melanoma): 33.9 µM
- GI50 (UO-31 renal): 15.3 µM
- TGI (UO-31 renal): 29.2 µM
